Tests used:
BTK = BTK (Mus musculus, UniProt P35991); assay: BTK inhibition assay of benzopyran derivatives; type: biochemical; settings: for IC50: BTK inhibitory activity; for BTK inhibitory activity in words: kinase assays
NALM-6 cells = assay: Apoptosis induction, TUNNEL and flow cytometric assay; type: cell-based, human; settings: compound alone, 100 μM
human leukemia cells = assay: Ceramide or vincristine sensitivity of human leukemia cells; type: cell-based; settings: co-administration with chemotherapeutic agent
From the text: FIG. 23: Effects of DDE-11 on ceramide or vincristine—sensitivity of human leukemia cells. Studies were done as described above for FIG. 17, but using DDE 11 as the BTK inhibitor.

RBL-2H3 rat mast cells = assay: IgE/FcεRI receptor mediated leukotriene C4 release, RBL-2H3 mast cells; type: cell-based; settings: RBL-2H3, IgE/DNP-BSA challenge, 30 min pre-incubation, 1-100 μM, N = 3-4, read-out: EC50 (mean ± SEM), inhibition of leukotriene C4 release
Procedure: Mast Cell Cultures. RBL-2H3 mast cells were a gift from Dr. Reuben P. Siraganian (Laboratory of Microbiology and Immunology, National Institute of Dental Research, National Institute of Health). The cells were maintained as monolayer cultures in 75- or 150-cm^2 flask in Eagle's essential medium supplemented with 20% fetal calf serum. Human fetal livers (16 to 21 weeks of gestational age) were obtained from prostaglandin-induced human abortuses. Subsequently, single cell suspensions were prepared and mononuclear cells were isolated by centrifugation on Ficoll-Hypaque gradients as described (Malaviya, R., et al., (1999) J Biol Chem, 274, 27028-27038). Isolated cells were cultured for 8 weeks in the presence of 100 ng/ml rhSCF, 2 ng/ml rhIL-4 (Malaviya, R., et al., (1999) J Biol Chem, 274, 27028-27038; Xia, H. Z., et al., (1997) J Immunol, 159, 2911-2921). Culture medium was replaced with fresh medium once a week for the first 2 weeks and twice a week thereafter. All human tissue specimens were used following the guidelines of the Parker Hughes Institute Institutional Review Board on the Use of Human Subjects in Research for secondary use of pathologic or surgical tissue. At the end of the 8 weeks the fetal liver derived human mast cell culture contained 70-90 percent mast cells, based on toluidine blue and tryptase staining (Xia, H. Z., et al., (1997) J Immunol, 159, 2911-2921).
Stimulation of Mast Cells. RBL-2H3 rat mast were sensitized with monoclonal anti-DNP IgE antibody (0.24 mg/ml) for 1 h at 37° C. in a 48-well tissue culture plate. Unbound IgE was removed by washing the cells with PIPES-buffered saline. After washing, PIPES-buffered saline containing 1 mM calcium chloride was added to the monolayers of the RBL-2H3 cells. The cells were challenged with 20 ng/ml DNP-BSA for 30 min at 37° C. The plate was centrifuged at 200 g for 10 min at 4° C. Supernatants were removed and saved. Fetal liver-derived human mast cells were resuspended in culture medium at a cell density of 5×10^6/ml and sensitized with human IgE (150 μg/ml) for 3 h at 4° C. After sensitization the cells were washed with tyrode buffer containing 1 mM calcium and 1 mM magnesium and challenged with mouse monoclonal anti-human IgE (40 μg/ml) for 30 min at 37° C. To study the effect of test drugs, RBL-2H3 rat mast cells or human mast cells were incubated with the drugs at the indicated concentrations or vehicle for 30 min prior to antigen challenge.
Mediator Release Assay. Leukotriene C4 levels were estimated in cell free supernatants of mast cells by immunoassay (Malaviya, R. and Abraham, S. N., (1995) Methods Enzymol, 253, 27-43).
Mast cells release large amounts of leukotrienes upon IgE receptor ligation. Because of the reported ability of LFM as a mast cell inhibitor, we utilized 13 analogues of LFM (Table 1) and examined their effect on IgE/FcεERI receptor mediated mast cell leukotriene C4 release. RBL-2H3 cells, a mucosal mast cell line, were treated with 5 different concentrations of the compounds ranging from 1 μM to 100 μM or vehicle for 30 min before challenge with antigen (DNP-BSA) at 37° C. Leukotriene C4 release was quantitated in the extracellular medium employing a previously described ELISA (Malaviya, R. and Abraham, S. N., (1995) Methods Enzymol, 253, 27-43).

Chain of BTK (P35991 whole entry): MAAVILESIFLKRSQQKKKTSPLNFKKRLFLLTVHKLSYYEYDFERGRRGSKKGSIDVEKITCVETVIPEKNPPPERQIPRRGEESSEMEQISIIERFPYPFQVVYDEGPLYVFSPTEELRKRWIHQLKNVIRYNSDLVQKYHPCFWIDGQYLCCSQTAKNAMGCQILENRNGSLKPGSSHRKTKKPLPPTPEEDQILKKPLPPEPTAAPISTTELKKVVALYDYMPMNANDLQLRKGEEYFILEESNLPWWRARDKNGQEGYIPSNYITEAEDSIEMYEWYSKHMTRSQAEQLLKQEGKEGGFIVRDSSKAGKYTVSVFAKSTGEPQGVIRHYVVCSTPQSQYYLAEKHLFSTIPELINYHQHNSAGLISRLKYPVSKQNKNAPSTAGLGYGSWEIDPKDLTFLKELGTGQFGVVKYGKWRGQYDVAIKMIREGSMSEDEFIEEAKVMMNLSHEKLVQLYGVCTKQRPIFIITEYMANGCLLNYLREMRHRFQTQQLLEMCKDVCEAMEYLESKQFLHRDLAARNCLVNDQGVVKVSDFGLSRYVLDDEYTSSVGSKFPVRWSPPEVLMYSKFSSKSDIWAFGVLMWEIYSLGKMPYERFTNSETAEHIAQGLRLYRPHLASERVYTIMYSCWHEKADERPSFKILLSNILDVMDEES

## CCCc1cc(=O)oc2c(C(=O)CC)c(O)cc(O)c12 [DDE11, 5,7-Dihydroxy-8-propanoyl-4-propyl-2H-1-benzopyran-2-one]
BTK
  IC50: < 36.2 µM
  BTK inhibitory activity in words: potent BTK inhibitors
NALM-6 cells
  apoptosis induction: induces apoptosis
Human leukemia cells
  cytotoxicity of C2-CER and vincristine on co-administration: increaseed the cytotoxicity

## CCCc1cc(=O)oc2cc(O)cc(O)c12 [DDE181, 5,7-Dihydroxy-4 propyl-2H-1-benzopyran-2-one]
BTK
  IC50: < 45.4 µM
  BTK inhibitory activity in words: potent BTK inhibitors

## CCCc1cc(=O)oc2c(C=O)c(O)cc(O)c12 [DDE213, 5,7-Dihydroxy-8-carboxaldehyde-4-propyl-2H-1-benzopyran-2-one]
BTK
  IC50: < 40.3 µM
  BTK inhibitory activity in words: potent BTK inhibitors

## CCc1cc(=O)oc2cc(O)cc(O)c12 [DDE214, 5,7-Dihydroxy-4-ethyl-2H-1-benzopyran-2-one]
BTK
  IC50: < 48.5 µM
  BTK inhibitory activity in words: potent BTK inhibitors

## CCCc1cc(=O)oc2c(C(=O)CC)c(OC)cc(OC)c12 [DDE229]
BTK
  IC50: > 329 µM

## O=c1cc(-c2ccccc2)c2c(O)cc(O)cc2o1 [DDE270, 5,7-Dihydroxy-4-phenyl-2H-1-benzopyran-2-one]
BTK
  IC50: 98.3 µM

## CCCc1cc(=O)oc2c(C(C)=O)c(O)cc(O)c12 [DDE271, 5,7-Dihydroxy-8-acetyl-4-propyl-2H-1-benzopyran-2-one]
BTK
  IC50: > 381 µM

## CCCc1cc(=O)oc2c(C(=O)C(C)C)c(O)cc(O)c12 [DDE272]
BTK
  IC50: > 344 µM

## CCCc1cc(=O)oc2c(C(=O)c3ccccc3)c(O)cc(O)c12 [DDE355]
BTK
  IC50: > 308 µM

## CC(O)=C(C#N)C(=O)Nc1ccc(C(F)(F)F)cc1 [LFM, α-Cyano-β-hydroxy-β-methyl-N-[4-(trifluoromethyl)phenyl]-propenamide, reference compound]
RBL-2H3 rat mast cells
  EC50: 34 ± 14.5 µM

## CC(O)=C(C#N)C(=O)Nc1ccc(Br)cc1 [LFM-A1, α-Cyano-β-hydroxy-β-methyl-N-(4-bromophenyl)propenamide]
RBL-2H3 rat mast cells
  EC50: 64 ± 13.9 µM
other
  melting point: 213 to 214 °C

## CC(O)=C(C#N)C(=O)Nc1ccc(Cl)cc1 [LFM-A2, α-Cyano-β-hydroxy-β-methyl-N-(4-chlorophenyl)propenamide]
RBL-2H3 rat mast cells
  EC50: 58 ± 13 µM
other
  melting point: 209 to 211 °C

## CC(O)=C(C#N)C(=O)Nc1ccc(F)cc1 [LFM-A3, α-Cyano-β-hydroxy-β-methyl-N-(4-fluorophenyl)propenamide]
RBL-2H3 rat mast cells
  EC50: > 100 µM
other
  melting point: 165 to 166 °C

## CC(O)=C(C#N)C(=O)Nc1ccccc1C(F)(F)F [LFM-A4, α-Cyano-β-hydroxy-β-methyl-N-[2-(trifluoromethyl)phenyl]-propenamide]
RBL-2H3 rat mast cells
  EC50: > 100 µM
other
  melting point: 61 to 63 °C

## CC(O)=C(C#N)C(=O)Nc1ccccc1Br [LFM-A5, α-Cyano-β-hydroxy-β-methyl-N-(2-bromophenyl)propenamide]
RBL-2H3 rat mast cells
  EC50: 46 ± 10 µM
other
  melting point: 98 to 100 °C

## CC(O)=C(C#N)C(=O)Nc1ccccc1Cl [LFM-A6, α-Cyano-β-hydroxy-β-methyl-N-(2-chlorophenyl)propenamide]
RBL-2H3 rat mast cells
  EC50: > 100 µM
other
  melting point: 93 to 94 °C

## CC(O)=C(C#N)C(=O)Nc1ccccc1F [LFM-A7, α-Cyano-β-hydroxy-β-methyl-N-(2-fluorophenyl)propenamide]
RBL-2H3 rat mast cells
  EC50: > 100 µM
other
  melting point: 118 to 119 °C

## CC(O)=C(C#N)C(=O)Nc1cccc(Br)c1 [LFM-A9, α-Cyano-β-hydroxy-β-methyl-N-(3-bromophenyl)propenamide]
RBL-2H3 rat mast cells
  EC50: > 100 µM
other
  melting point: 184 to 185 °C

## CC(O)=C(C#N)C(=O)Nc1cccc(Cl)c1 [LFM-A10, α-Cyano-β-hydroxy-β-methyl-N-(3-chlorophenyl)propenamide]
RBL-2H3 rat mast cells
  EC50: 51 ± 12 µM
other
  melting point: 184 to 187 °C

## CC(O)=C(C#N)C(=O)Nc1cccc(F)c1 [LFM-A11, α-Cyano-β-hydroxy-β-methyl-N-(3-fluorophenyl)propenamide]
RBL-2H3 rat mast cells
  EC50: > 100 µM
other
  melting point: 136 to 138 °C

## CC(O)=C(C#N)C(=O)Nc1ccc(OC(F)(F)F)cc1 [LFM-A12, α-Cyano-β-hydroxy-β-methyl-N-[4-(trifluoromethoxy)phenyl]-propenamide]
RBL-2H3 rat mast cells
  EC50: 30 ± 5.6 µM
other
  melting point: 182 to 183 °C

## CC(O)=C(C#N)C(=O)Nc1ccccc1 [LFM-A14, α-Cyano-β-hydroxy-β-methyl-N-(phenyl)propenamide]
RBL-2H3 rat mast cells
  EC50: > 100 µM
other
  melting point: 134 to 135 °C

## C/C(O)=C(\C#N)C(=O)Nc1ccc(S(C)(=O)=O)cc1 [LFM-A15, α-Cyano-β-hydroxy-β-methyl-N-[4-(methylsulfonyl)phenyl]-propenamide]
other
  melting point: 205 to 206 °C

## C/C(O)=C(\C#N)C(=O)Nc1cccc(S(C)(=O)=O)c1 [LFM-A16]
other
  melting point: 213 to 214 °C

## C/C(O)=C(\C#N)C(=O)Nc1ccc(OC(F)(F)F)c(Br)c1 [LFM-A17, α-Cyano-β-hydroxy-β-methyl-N-[3-bromo-4-(trifluoromethoxy)-phenyl]propenamide]
other
  melting point: 178 to 179 °C

## C/C(O)=C(\C#N)C(=O)Nc1cc(Cl)ccc1Cl [LFM-A18, α-Cyano-β-hydroxy-β-methyl-N-(2,5-dichlorophenyl)-propenamide]
other
  melting point: 143 to 144 °C

## C/C(O)=C(\C#N)C(=O)Nc1ccc(Br)cc1Br [LFM-A19, α-Cyano-β-hydroxy-β-methyl-N-(2,4-dibromophenyl)-propenamide]
other
  melting point: 181 °C

## C/C(O)=C(\C#N)C(=O)Nc1ccc(Cl)cc1Cl [LFM-A20, α-Cyano-β-hydroxy-β-methyl-N-(2,4-dichlorophenyl)-propenamide]
other
  melting point: 143 to 144 °C
